In brackets after ≈: the same amount, converted by molar mass.
Legend:
[1] = tested on: Staphylococcus aureus S13E; format: cell-based
Procedure: (§1) The MIC's were determined using a standard broth micro-dilution assay.

[2] = tested on: Staphylococcus aureus SA1199B; format: cell-based
Procedure: as §1

[3] = tested on: Entercoccus faecium 180-1; experiment: broth micro-dilution MIC; format: cell-based
Procedure: as §1

[4] = tested on: Entercoccus faecium 276; experiment: broth micro-dilution MIC; format: cell-based
Procedure: as §1

[5] = tested on: Staphylococcus aureus 446; experiment: broth micro-dilution MIC; format: cell-based
Procedure: as §1

[6] = tested on: Staphylococcus aureus 447; experiment: broth micro-dilution MIC; format: cell-based
Procedure: as §1

[7] = tested on: Staphylococcus aureus 489; experiment: broth micro-dilution MIC; format: cell-based
Procedure: as §1

[8] = tested on: Staphylococcus aureus 491; experiment: broth micro-dilution MIC; format: cell-based
Procedure: as §1

[9] = tested on: Staphylococcus aureus SA1199A; experiment: broth micro-dilution MIC; format: cell-based
Procedure: as §1

[10] = tested on: Staphylococcus aureus SA1199; experiment: broth micro-dilution MIC; format: cell-based
Procedure: as §1

[11] = tested on: Staphylococcus aureus X400; experiment: broth micro-dilution MIC; format: cell-based
Procedure: as §1

[12] = tested on: Staphylococcus aureus X778; experiment: broth micro-dilution MIC; format: cell-based
Procedure: as §1

[13] = tested on: Streptococcus pyogenes C203; experiment: broth micro-dilution MIC; format: cell-based
Procedure: as §1

[14] = tested on: Entercoccus faecium 180; experiment: broth micro-dilution MIC; format: cell-based; conditions: Entercoccus faecium 180
Procedure: (§2) The formula I compounds have in vitro and in vivo activity against Gram-positive pathogenic bacteria. The MIC's were determined using a standard broth micro-dilution assay.

[15] = tested on: Entercoccus faecium 2041; experiment: broth micro-dilution MIC; format: cell-based; conditions: Entercoccus faecium 2041
Procedure: as §2

[16] = tested on: Enterococcus gallinarum 245; experiment: broth micro-dilution MIC; format: cell-based; conditions: Enterococcus gallinarum 245
Procedure: as §2

[17] = tested on: Staphylococcus epidermidis 270; experiment: broth micro-dilution MIC; format: cell-based
Procedure: as §2

[18] = tested on: Staphylococcus haemolyticus 105; experiment: broth micro-dilution MIC; format: cell-based
Procedure: as §2

[19] = tested on: Staphylococcus haemolyticus 415; experiment: broth micro-dilution MIC; format: cell-based
Procedure: as §2

[20] = tested on: Streptococcus pneumoniae P1; experiment: broth micro-dilution MIC; format: cell-based
Procedure: as §2

[21] = tested on: vancomycin-resistant enterococci; experiment: broth micro-dilution, mean geometric MIC; format: cell-based, Enterococcus faecium and Enterococcus faecalis; conditions: enterococci, 24-hour incubation
[22] = tested on: vancomycin-susceptible enterococci; experiment: broth micro-dilution, mean geometric MIC; format: cell-based, Enterococcus faecium and Enterococcus faecalis; conditions: enterococci, 24-hour incubation

Row | Compound | MIC [1] [µg/mL] | MIC [2] [µg/mL] | MIC [3] [µg/mL] | MIC [4] [µg/mL] | MIC [5] [µg/mL] | MIC [6] [µg/mL] | MIC [7] [µg/mL] | MIC [8] [µg/mL] | MIC [9] [µg/mL] | MIC [10] [µg/mL] | MIC [11] [µg/mL] | MIC [12] [µg/mL] | MIC [13] [µg/mL] | MIC [14] [µg/mL] | MIC [15] [µg/mL] | MIC [16] [µg/mL] | MIC [17] [µg/mL] | MIC [18] [µg/mL] | MIC [19] [µg/mL] | MIC [20] [µg/mL] | further results
1 | CN[C@H](CC(C)C)C(=O)N[C@H]1C(=O)N[C@@H](CC(N)=O)C(=O)N[C@H]2C(=O)N[C@H]3C(=O)N[C@H](C(=O)N[C@H](C(=O)O)c4cc(O)cc(O)c4-c4cc3ccc4O)[C@H](O[C@H]3C[C@](C)(N)[C@@H](O)[C@H](C)O3)c3ccc(c(Cl)c3)Oc3cc2cc(c3O[C@@H]2O[C@H](CO)[C@@H](O)[C@H](O)[C@H]2O[C@H]2C[C@](C)(NCc3cccc(-c4ccccc4)c3)[C@@H](O)[C@H](C)O2)Oc2ccc(cc2Cl)[C@H]1O [Compound 91] | ≤ 0.06 | 0.5 (≈ 0.284 µM) | ≤ 0.06 | ≤ 0.06 | 0.5 (≈ 0.284 µM) | 0.5 (≈ 0.284 µM) | ≤ 0.06 | 1 (≈ 0.569 µM) | ≤ 0.06 | ≤ 0.06 | 0.5 (≈ 0.284 µM) | ≤ 0.06 | ≤ 0.06 | 0.5 (≈ 0.284 µM) | ≤ 0.06 | 2 (≈ 1.14 µM) | 0.5 (≈ 0.284 µM) | 2 (≈ 1.14 µM) | 2 (≈ 1.14 µM) | ≤ 0.06 | mean geometric MIC, Vancomycin Resistant Strains [21]: 2.8 µg/mL; mean geometric MIC, Vancomycin Sensitive Strains [22]: 0.11 µg/mL
2 | CNC(CC(C)C)C(=O)NC1C(=O)NC(CC(N)=O)C(=O)NC2C(=O)NC3C(=O)NC(C(=O)NC(C(=O)O)c4cc(O)cc(O)c4-c4cc3ccc4O)C(OC3CC(C)(N)C(O)C(C)O3)c3ccc(c(Cl)c3)Oc3cc2cc(c3OC2OC(CO)C(O)C(O)C2OC2CC(C)(NCc3cccc(Sc4ccc(C(C)(C)C)cc4)c3)C(O)C(C)O2)Oc2ccc(cc2Cl)C1O (stereo not shown) [Compound 228] | 8 (≈ 4.33 µM) | 4 (≈ 2.17 µM) | ≤ 0.06 | 1 (≈ 0.541 µM) | 4 (≈ 2.17 µM) | 4 (≈ 2.17 µM) | 2 (≈ 1.08 µM) | 1 (≈ 0.541 µM) | ≤ 0.06 | 4 (≈ 2.17 µM) | 1 (≈ 0.541 µM) | 4 (≈ 2.17 µM) | 0.125 (≈ 0.0677 µM) | 1 (≈ 0.541 µM) | 0.25 (≈ 0.135 µM) | 4 (≈ 2.17 µM) | 2 (≈ 1.08 µM) | 2 (≈ 1.08 µM) | 4 (≈ 2.17 µM) | ≤ 0.06 | mean geometric MIC, Vancomycin Resistant Strains [21]: 1.0 µg/mL; mean geometric MIC, Vancomycin Sensitive Strains [22]: 0.14 µg/mL
3 | CNC(CC(C)C)C(=O)NC1C(=O)NC(CC(N)=O)C(=O)NC2C(=O)NC3C(=O)NC(C(=O)NC(C(=O)O)c4cc(O)cc(O)c4-c4cc3ccc4O)C(OC3CC(C)(N)C(O)C(C)O3)c3ccc(c(Cl)c3)Oc3cc2cc(c3OC2OC(CO)C(O)C(O)C2OC2CC(C)(NCc3ccc4c(c3)CCc3ccccc3-4)C(O)C(C)O2)Oc2ccc(cc2Cl)C1O (stereo not shown) [Compound 220] | 0.5 (≈ 0.28 µM) | 0.5 (≈ 0.28 µM) | ≤ 0.06 | 0.125 (≈ 0.07 µM) | 1 (≈ 0.56 µM) | 0.5 (≈ 0.28 µM) | 0.5 (≈ 0.28 µM) | ≤ 0.06 | ≤ 0.06 | 1 (≈ 0.56 µM) | 0.5 (≈ 0.28 µM) | 0.5 (≈ 0.28 µM) | ≤ 0.06 | 0.125 (≈ 0.07 µM) | ≤ 0.06 | 0.5 (≈ 0.28 µM) | 1 (≈ 0.56 µM) | 0.5 (≈ 0.28 µM) | 0.5 (≈ 0.28 µM) | ≤ 0.06 | mean geometric MIC, Vancomycin Resistant Strains [21]: 0.71 µg/mL; mean geometric MIC, Vancomycin Sensitive Strains [22]: 0.05 µg/mL
4 | CNC(CC(C)C)C(=O)NC1C(=O)NC(CC(N)=O)C(=O)NC2C(=O)NC3C(=O)NC(C(=O)NC(C(=O)O)c4cc(O)cc(O)c4-c4cc3ccc4O)C(OC3CC(C)(N)C(O)C(C)O3)c3ccc(c(Cl)c3)Oc3cc2cc(c3OC2OC(CO)C(O)C(O)C2OC2CC(C)(NCc3cccc(Oc4ccc(Cl)cc4)c3)C(O)C(C)O2)Oc2ccc(cc2Cl)C1O (stereo not shown) [Compound 86] | 1 (≈ 0.553 µM) | 1 (≈ 0.553 µM) | ≤ 0.06 | ≤ 0.06 | 1 (≈ 0.553 µM) | 0.5 (≈ 0.276 µM) | 1 (≈ 0.553 µM) | 1 (≈ 0.553 µM) | ≤ 0.06 | 0.5 (≈ 0.276 µM) | 1 (≈ 0.553 µM) | 1 (≈ 0.553 µM) | ≤ 0.06 | ≤ 0.06 | ≤ 0.06 | 1 (≈ 0.553 µM) | 1 (≈ 0.553 µM) | 1 (≈ 0.553 µM) | 1 (≈ 0.553 µM) | ≤ 0.06 | mean geometric MIC, Vancomycin Resistant Strains [21]: 1.4 µg/mL; mean geometric MIC, Vancomycin Sensitive Strains [22]: 0.036 µg/mL

From patent US5840684A, “Glycopeptide antibiotic derivatives” (Eli Lilly and Company, priority 1995, dated 1998)
